{"source": "patent US20250009877A1", "about": "“TREATMENT FOR CANCER” (Seagen Inc., priority 2021, published 2025)", "key": {"[1]": {"target": "murine CD40 (Mus musculus, UniProt P27512)", "sequence (P27512 20-289)": "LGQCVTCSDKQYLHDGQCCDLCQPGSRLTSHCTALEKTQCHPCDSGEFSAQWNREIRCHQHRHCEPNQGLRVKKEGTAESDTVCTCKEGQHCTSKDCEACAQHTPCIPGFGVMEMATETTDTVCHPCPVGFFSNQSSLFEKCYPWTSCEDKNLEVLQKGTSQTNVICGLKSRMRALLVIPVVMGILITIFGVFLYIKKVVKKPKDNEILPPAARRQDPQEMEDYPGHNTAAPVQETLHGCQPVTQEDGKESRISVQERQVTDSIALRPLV", "assay": "Recognition of murine CD40", "assay_type": "binding"}, "[2]": {"system": "CD40 signaling pathway", "conditions": "compared to the parent antibody dacetuzumab; cited from earlier work"}, "[3]": {"system": "interleukin-10 (IL-10)", "assay": "Induction of immune-dampening cytokines", "conditions": "unlike fully agonistic antibodies such as antibody 24.4.1"}, "[4]": {"system": "FcγIII receptors", "conditions": "compared to the fucosylated parent antibody dacetuzumab; cited from earlier work"}}}
{"substance": "SEA-CD40: non-fucosylated humanized S2C6 anti-CD40 antibody; heavy chain SEQ ID NO: 1, light chain SEQ ID NO: 2; parent antibody dacetuzumab", "values": [{"measurement": "recognition of murine CD40", "setting": "[1]", "result": "does not recognize"}, {"measurement": "ability to activate the CD40 signaling pathway in immune cells", "setting": "[2]", "result": "enhanced ability to activate"}, {"measurement": "production of immune-dampening cytokines such as interleukin-10 (IL-10)", "setting": "[3]", "result": "does not induce production"}, {"measurement": "binding to FcγIII receptors", "setting": "[4]", "result": "enhanced binding"}]}
